These results are taken from patent publication US20090032411A1, “METHOD AND SYSTEM FOR DETECTING PHARMACOLOGICALLY ACTIVE SUBSTANCES BY MEASURING MEMBRANE CURRENTS WITH EXTRACELLULAR SENSORS” (Max-Planck-Gesellschaft zur Foerderung Der Wissenschaften …, priority 2006, published 2009).

Entries after “also recorded” stand apart in the source; their conditions may differ.

What all share (format): cell-based
Assay [1] addresses T1, ligand-gated ion channel 5-HT3A (Homo sapiens, UniProt P46098).
T1 construct: host or cells: HEK293
T1 sequence (P46098 24-478): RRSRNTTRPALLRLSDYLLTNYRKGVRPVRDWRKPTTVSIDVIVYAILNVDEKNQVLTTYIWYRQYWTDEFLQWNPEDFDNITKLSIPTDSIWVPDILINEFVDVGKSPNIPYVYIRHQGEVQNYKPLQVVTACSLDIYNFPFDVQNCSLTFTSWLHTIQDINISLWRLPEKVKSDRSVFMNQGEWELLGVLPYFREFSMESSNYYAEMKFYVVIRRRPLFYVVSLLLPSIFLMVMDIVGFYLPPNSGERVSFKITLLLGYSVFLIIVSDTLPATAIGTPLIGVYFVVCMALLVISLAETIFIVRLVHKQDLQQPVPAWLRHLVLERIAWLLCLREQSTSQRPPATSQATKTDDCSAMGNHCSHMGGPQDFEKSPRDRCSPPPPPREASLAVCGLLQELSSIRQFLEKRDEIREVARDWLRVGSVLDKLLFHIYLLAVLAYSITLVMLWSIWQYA
Description: FET recording of the extracellular (junction) voltage signal of HEK293 cells doubly transfected with 5-HT3A and Kv1.3, ligands of 5-HT3A. The following applies: for extracellular voltage signal in the cell-chip junction on application of agonist: agonist 100 μM, cells expressing both 5-HT3A and Kv1.3, FET recording; for effect on the serotonin-induced extracellular voltage signal: tropisetron 1 μM present before and during stimulation with 100 μM serotonin, doubly transfected cell. As to the method:
(§1) HEK293 cells were cultured in plastic dishes (Becton Dickinson, No. 353001), in Dulbecco's modified Eagle's medium (GIBCO, No. 21885-025), supplemented with 10% heat-inactivated fetal bovine serum. The cDNA of the human ligand-gated ion channel 5-HT3A was purchased from Invitrogen (Ultimate ORF clone collection, HORF01), and subcloned into the expression plasmid pcDNA3 (Invitrogen, No. V790-20), applying standard molecular biology methods. The construction of an expression plasmid for the voltage-gated potassium channel Kv1.3 was as described in J. Kupper: Functional expression of GFP-tagged Kv1.3 and Kv1.4 channels in HEK 293 cells. Eur. J. Neurosci. 10, 3908-12 (1998). The cells were stably transfected with one of the two expression plasmids using Geneticin (GIBCO, No. 11811-064), as the selection antibiotic (500 μg/ml). After generation of stable cell lines, the cells were transiently transfected with the other of the two expression plasmids together with the EGFP-C1 plasmid (BD Biosciences Clontech, No. 632317), which served as control for successful transfection. Transfections were done using the Effectene method (Qiagen, No. 301425), at 60-80% confluency.
Silicon chips as described in M. Voelker, P. Fromherz: Signal transmission from individual mammalian nerve cell to field-effect transistor. Small 1, 206-210 (2005) with 128 Field Effect Transistors (FET) in two linear arrays and a culture chamber on top were cleaned, sterilized under UV-light and coated with 10 μg/ml fibronectin (Sigma, No. F2006). Cells were plated on these chips under normal culture conditions one day after transient transfection, and measurements were done one day after plating. Cells on transistor gates with the transiently expressed channels were identified by the green EGFP fluorescence.
During experiments the cells were flushed permanently with standard extracellular solution, consisting of (in mM): KCl 5.4, NaCl 135, CaCl2 1.8, MgCl2 1 Glucose 10, Hepes 5 (pH adjusted to 7.4 with NaOH). The ligands serotonin, CPBG (agonists of 5-HT3A) tropisetron and margatoxin (antagonists of 5-HT3A and Kv1.3, respectively), were obtained from Sigma (No. H9523, C144, T104, M8278), and dissolved in extracellular solution.
Ligand solutions were applied rapidly (ms range), with a double barrelled glass pipette (Theta-Tube), connected to a piezoelectric actuator (Burleigh, LSS-3100). Different ligand solutions were directed to the glass pipette by an eight-channel valve control system (ALA, BPS-8).
During application of ligands, the voltage in the cleft between transfected cells and the chip surface was probed with the gates of Field Effect Transistors under the cells.

Assay [2] has as its target T2, voltage-gated potassium channel Kv1.3 (Homo sapiens, UniProt P22001).
T2 construct: expressed in transfected cells; host or cells: HEK293
Description: FET recording of the extracellular (junction) voltage signal of HEK293 cells doubly transfected with 5-HT3A and Kv1.3, blocker of Kv1.3. As to the method:
as §1, with “Transfections were done using the Effectene method (Qiagen, No. 301425), at 60-80% confluency.” left out
(§2) Silicon chips as described in M. Voelker, P. Fromherz: Signal transmission from individual mammalian nerve cell to field-effect transistor. […] Cells on transistor gates with the transiently expressed channels were identified by the green EGFP fluorescence. […]

The target of assay [3] is T3, voltage-gated channel Kv1.3 (Homo sapiens, UniProt P22001).
T3 construct: expressed in transfected cells; host or cells: HEK293
Description: FET recording of junction voltage of HEK293 cells expressing only Kv1.3. As to the method:
as §1, with “Transfections were done using the Effectene method (Qiagen, No. 301425), at 60-80% confluency.” left out
as §2

Assay [4] has as its target T1, ligand-gated ion channel 5-HT3A. Description: FET recording of junction voltage of HEK293 cells expressing only 5-HT3A. As to the method:
as §1, with “Transfections were done using the Effectene method (Qiagen, No. 301425), at 60-80% confluency.” left out
as §2

T2 sequence (P22001 whole entry): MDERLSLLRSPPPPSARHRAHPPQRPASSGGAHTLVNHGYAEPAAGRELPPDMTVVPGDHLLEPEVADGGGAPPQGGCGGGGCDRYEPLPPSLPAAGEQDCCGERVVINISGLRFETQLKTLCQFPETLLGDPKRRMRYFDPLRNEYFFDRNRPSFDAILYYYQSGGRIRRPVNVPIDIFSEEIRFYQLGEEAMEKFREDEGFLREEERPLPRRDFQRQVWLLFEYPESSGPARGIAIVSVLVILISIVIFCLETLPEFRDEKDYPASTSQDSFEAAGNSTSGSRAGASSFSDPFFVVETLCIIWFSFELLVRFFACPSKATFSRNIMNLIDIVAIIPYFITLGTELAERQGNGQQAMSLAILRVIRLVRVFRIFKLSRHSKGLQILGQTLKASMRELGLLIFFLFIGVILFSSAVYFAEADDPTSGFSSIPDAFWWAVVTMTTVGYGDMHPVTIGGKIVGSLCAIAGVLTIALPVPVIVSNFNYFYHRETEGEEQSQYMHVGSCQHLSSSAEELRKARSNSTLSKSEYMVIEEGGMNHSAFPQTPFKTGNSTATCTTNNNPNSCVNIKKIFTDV
T3 sequence (P22001 whole entry): as above

`NC(N)=NC(N)=Nc1cccc(Cl)c1` [CPBG]: the “extracellular voltage signal in the cell-chip junction on application of agonist” value in assay [1] is reported as “triggered a biphasic voltage signal; also recorded: caused a biphasic voltage signal”.

In the case of `CN1[C@@H]2CC[C@H]1C[C@@H](OC(=O)c1c[nH]c3ccccc13)C2` [tropisetron], the “effect on the serotonin-induced extracellular voltage signal” value in assay [1] is reported as “blocked the signal”; in assay [1] (listed as Tropisetron) it was “The signal was lost”.

As to “margatoxin (TIINVKCTSPKQCLPPCKAQFGQSAGAKCMNGKCKCYPH; UniProt P40755 1-39, looked up)”, the “effect on the serotonin-induced extracellular voltage signal” value in assay [2] (5 nM margatoxin present during 100 μM serotonin stimulation, doubly transfected cell) is “The signal was reduced; also recorded: blocked the signal”. In assay [2] (same cell, after removal of 5 nM margatoxin), the “serotonin-triggered signal after removal of margatoxin (reversibility)” value is “A biphasic voltage signal was recovered”.

As to `NCCc1c[nH]c2ccc(O)cc12` [serotonin], the figures for the “voltage signal in the cell-chip junction upon stimulation with serotonin” value in assay [3] and in assay [4] were “failed to produce a signal” and “failed to cause a voltage signal”, respectively. Besides, in assay [1], the “extracellular voltage signal in the cell-chip junction on application of agonist” value is given as “triggered a biphasic voltage signal; also recorded: Biphasic extracellular voltage signal; also recorded: caused a biphasic voltage signal”.
